Measurements as given in US20090209606A1 (priority 2004, published 2009).
Where two headings read alike, the source gives them in different places. Residues, ends and D or L forms follow the SMILES beside them. *: point of attachment. Cbz = O=C(OCc1ccccc1)*; CH2F = FC*

How the values were obtained:
[1] = tested on: alkylguanyl transferase (AGT) in SU-DHL-1 cells
SU-DHL-1 cells [2] = test: Cell cycle analysis (propidium iodide, FACS); conditions: SU-DHL-1, eight hours, equitoxic concentrations (bendamustine 50 μM)
[3] = tested on: 60 human tumor cell lines
SU-DHL-1 cells [4] = test: cells; format: cell-based; conditions: Homo sapiens
SU-DHL-1 cells [5] = format: cell-based
SU-DHL-1 cells [6] = format: cell-based; remark: listed apart in the source
SU-DHL-1 cells [7] = format: cell-based; remark: listed apart in the source
PARP in SU-DHL-1 cells = format: cell-based
[8] = tested on: Ape-1 base excision repair enzyme; format: cell-based
[9] = tested on: MCF-7/ADR cells and p53 deficient RK0-E6 colon adenocarcinoma cells; format: cell-based
[10] = tested on: relapsed indolent or transformed rituximab-refractory B-cell NHL; test: Phase II multicenter trial; format: in vivo, human
Source text: This study evaluated the efficacy and toxicity of bendamustine in patients with NHL who have relapsed or are refractory to previous chemotherapy regimens. Patients refractory to rituximab had disease progression within 6 months of treatment.
Methods: This Phase II multicenter trial enrolled patients with relapsed indolent or transformed rituximab-refractory B-cell NHL from 17 sites in the US and Canada. […] Median age of patients was 63 years (range: 38-84) and 88% had Stage III/IV disease. Patients received bendamustine 120 mg/m^2 IV over 30-60 minutes, days 1 and 2, every 21 days for up to 6 cycles. Response was measured using the International Working Group criteria.

gamma-H2AX histone = test: H2AX foci formation (immunofluorescence); conditions: 50 μM
Protocol: Cell were grown on Lab-Tek chamber slides (Nalge Nunc Intl., Naperville, Ill.) in RPMI 1640 media supplemented with 10% FBS. […] The cells were incubated for 30 minutes at 37° C. and then washed two times with PBS. They were incubated for an additional 4 hours at 37° C. The cells were then washed twice with 1×PBS and incubated 10 minutes in −20° C. 100% methanol to fix the cells. They were then washed three times for five minutes each with 1×PBS. They were incubated at room temperature for 1 hour in blocking buffer (10% FBS in 1×PBS, 1% BSA). The slides were incubated at 4° C. with rocking overnight with the primary polyclonal anti-H2AX antibody (R & D Systems, Minneapolis, Minn.). The antibody was diluted in blocking buffer at a ratio of 1:10,000. Slides were washed three times with 1×PBS and incubated with Alexa Flour 488 goat anti-rabbit secondary antibody (1:4000) (Molecular Probes, Eugene, Oreg.) for 45 minutes at room temperature with gentle shaking. Slides were washed three times with 1×PBS and then the chambers removed and SlowFade Light Antifade with DAPI (Molecular Probes) was added to the cells and coverslips sealed on the slides. Analysis was performed using a motorized Zeiss AxioPlan 2e imaging microscope with DIC optics and fluorescence, a Zeiss AxioCam HRm camera and Zeiss Axiovision software Version 4.2.

[11] = SU-DHL-1, 72 h, read-out: Ave IC50
[12] = SU-DHL-1, 72 h, read-out: Ave IC90

## O=P1(N(CCCl)CCCl)NCCCO1 (centres unmarked) [cyclophosphamide]
[1]
  effect of O6-benzylguanine on cytotoxic potency: Opposite results
SU-DHL-1 cells [2]
  S-phase distribution increase: ~15%

## O=NN(CCCl)C(=O)NCCCl [carmustine]
[1]
  effect of O6-benzylguanine on cytotoxic potency: significantly sensitizes

## CN(C)/N=N/c1[nH]cnc1C(N)=O [DTIC, Dacarbazine, Dacarbazine]
[3]
  Correlation (PCC) with bendamustine, LC50: 0.792 (LC50)

## O=C(O)CCCc1ccc(N(CCCl)CCCl)cc1 [Chlorambucil, chlorambucil]
SU-DHL-1 cells [4]; [11]
  IC50: 3.4 µM
SU-DHL-1 cells [4]; [12]
  IC90: 6.2 µM
SU-DHL-1 cells [4]; SU-DHL-1, read-out: IC90 concentration
  IC90: 5 µM
SU-DHL-1 cells [4]; SU-DHL-1, read-out: equitoxic (IC50) concentrations
  IC50: 4 µM
SU-DHL-1 cells [5]
  PLK-1 and Aurora A kinase (AurkA) expression: No changes
  down-regulation of mRNA expression of PLK-1, Aurora Kinases A and B, cyclin B1: minor effect
  induction of p21 and NOXA mRNA: much lower extent
  up-regulation of Exo1 expression: 1.8 fold
SU-DHL-1 cells [6]
  PARP protein expression: no changes
  expression of total p53: small increase
  up-regulation of Ser-15-phosphorylated p53: no changes
SU-DHL-1 cells [7]
  loss of viability after brief exposure and wash-out: minimal loss of viability
PARP in SU-DHL-1 cells
  PARP cleavage: No PARP cleavage
SU-DHL-1 cells [2]
  S-phase distribution increase: approximately 20%

## Cl.Cn1c(CCCC(=O)O)nc2cc(N(CCCl)CCCl)ccc21 [Bendamustine, 4-{5-[bis(2-chloroethyl)amino]-1-methyl-2-benzimidazolyl} butyric acid hydrochloride]
SU-DHL-1 cells [4]; [11]
  IC50: 33.2 µM
SU-DHL-1 cells [4]; [12]
  IC90: 56.3 µM
SU-DHL-1 cells [4]; SU-DHL-1, read-out: IC50 concentration
  IC50: 25 µM
SU-DHL-1 cells [5]
  Fen1 mRNA regulation: upregulated
  PLK-1 and Aurora A kinase (AurkA) expression: down-regulated
  down-regulation of mRNA expression of PLK-1, Aurora Kinases A and B, cyclin B1: 60 to 80%
  induction of p21 and NOXA mRNA: induced
  up-regulation of Exo1 expression: 2.5 fold
SU-DHL-1 cells [6]
  PARP protein expression: dramatic reduction
  expression of total p53: strong increase
  protein expression of Bax: increase
  up-regulation of Ser-15-phosphorylated p53: 8 fold
[8]
  change of IC50 with methoxyamine addition: reduced approximately four-fold
[9]; 50 μM, alone or with 20 μM zVAD-fmk, two or three days
  micronucleation (nuclear morphology, DAPI): increased incidence of micronucleation
SU-DHL-1 cells [7]
  loss of viability after brief exposure and wash-out: extensive loss of viability
PARP in SU-DHL-1 cells
  PARP cleavage: Maximal PARP cleavage
[10]; 15 patients refractory to prior alkylator treatment
  objective response: 67%
[10]; ITT population
  complete response: 25%
  disease progression: 14%
  partial response: 49%
  stable disease: 12%
[10]; ITT population, 120 mg/m^2 IV days 1 and 2 every 21 days
  overall objective response rate (ORR): 74%
[10]; all patients
  median duration of response: 6.6 months
[10]; indolent patients
  median duration of response: 9.3 months
[10]; single agent, heavily pretreated patients
  toxicity: acceptable toxicity
[10]; transformed patients
  median duration of response: 2.4 months
[1]
  effect of O6-benzylguanine on cytotoxic potency: not enhanced
gamma-H2AX histone
  time to detectable intranuclear H2AX foci: ≤ 30 min
SU-DHL-1 cells [2]
  S-phase distribution increase: over 40%

## COC(=O)C[C@H](NC(=O)[C@H](C)NC(=O)[C@@H](NC(=O)OCc1ccccc1)C(C)C)C(=O)CF [zVAD-fmk] (Cbz-Val-Ala-Asp(OMe)-CH2F)
[9]
  bendamustine-induced increases in Annexin-V-positive cells: able to inhibit

## N[C@@H](Cc1ccc(N(CCCl)CCCl)cc1)C(=O)O [melphalan]
SU-DHL-1 cells [7]
  loss of viability after brief exposure and wash-out: minimal loss of viability
PARP in SU-DHL-1 cells
  PARP cleavage: No PARP cleavage
